Experimental data reported in ChEMBL document CHEMBL1201862, “PubChem BioAssay data set” (2004).
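Briefly, cells in 96-well plates were exposed to five compound concentrations for 48 h, and endpoints were estimated by linear interpolation. The concentration for 50% growth inhibition is given as GI50.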 Calls of active or inactive are those of the source. Cut-off read from the data, not from the text of the source: active = GI50 up to about 1.1 µM and inactive = higher.

Experiments:
Assay in all cases: NCI tumour cell line growth inhibition, 48 h
OVCAR-3 = tested on: OVCAR-3
HL-60 = tested on: HL-60
LOX IMVI = tested on: LOX IMVI
CCRF-CEM = tested on: CCRF-CEM
U-251 = tested on: U-251
A549 = tested on: A549
SK-MEL-2 = tested on: SK-MEL-2
HOP-62 = tested on: HOP-62
SK-MEL-28 = tested on: SK-MEL-28
UACC-257 = tested on: UACC-257
K562 = tested on: K562
UO-31 = tested on: UO-31
TK-10 = tested on: TK-10
HCT-15 = tested on: HCT-15
NCI-H23 = tested on: NCI-H23
NCI-H226 = tested on: NCI-H226
SK-MEL-5 = tested on: SK-MEL-5

| SMILES | GI50 (OVCAR-3) | GI50 (HL-60) | GI50 (LOX IMVI) | GI50 (CCRF-CEM) | GI50 (U-251) | GI50 (A549) | GI50 (SK-MEL-2) | GI50 (HOP-62) | GI50 (SK-MEL-28) | GI50 (UACC-257) | GI50 (K562) | GI50 (UO-31) | GI50 (TK-10) | GI50 (HCT-15) [µM] | GI50 (NCI-H23) | GI50 (NCI-H226) | GI50 (SK-MEL-5) |
| --- | --- | --- | --- | --- | --- | --- | --- | --- | --- | --- | --- | --- | --- | --- | --- | --- | --- |
| Cc1cc(C)c(C(=O)OC(c2ccccc2)C(c2ccccc2)N2CCOCC2)c(C)c1 (stereo unspecified) | > 100 µM (inactive) | 44.6 µM (inactive) | > 100 µM (inactive) | > 100 µM (inactive) | > 100 µM (inactive) | > 100 µM (inactive) | > 100 µM (inactive) | > 100 µM (inactive) | > 100 µM (inactive) | > 100 µM (inactive) | > 100 µM (inactive) | > 100 µM (inactive) | > 100 µM (inactive) | > 100 | > 100 µM (inactive) | > 100 µM (inactive) |  |
| Cc1cc2c(C)nn(Cc3ccc(Cl)cc3Cl)c2c(C#N)c1C | > 100 µM (inactive) | > 100 µM (inactive) | > 100 µM (inactive) | > 100 µM (inactive) | > 100 µM (inactive) | 86.3 µM (inactive) | > 100 µM (inactive) | > 100 µM (inactive) | > 100 µM (inactive) | 37.8 µM (inactive) |  | > 100 µM (inactive) | > 100 µM (inactive) | > 100 | > 100 µM (inactive) | > 100 µM (inactive) |  |
| COc1ccc(CN(CCN(C)C)c2ccccn2)cc1.Cn1c(=O)c2[nH]c(Br)nc2n(C)c1=O | > 100 µM (inactive) |  |  | > 100 µM (inactive) | > 100 µM (inactive) |  | > 100 µM (inactive) | > 100 µM (inactive) | > 100 µM (inactive) | > 100 µM (inactive) | 94 µM (inactive) | > 100 µM (inactive) | > 100 µM (inactive) | 71.6 | > 100 µM (inactive) |  | > 100 µM (inactive) |
| CC(C)(C)[Si](C)(C)OC1C(=O)C[C@H]2CCCC[C@@H]12 (stereo partly specified) | > 100 µM (inactive) | 48.4 µM (inactive) | > 100 µM (inactive) | > 100 µM (inactive) | > 100 µM (inactive) | > 100 µM (inactive) | > 100 µM (inactive) | > 100 µM (inactive) |  | > 100 µM (inactive) | > 100 µM (inactive) | > 100 µM (inactive) | > 100 µM (inactive) | > 100 | > 100 µM (inactive) |  | > 100 µM (inactive) |
| CN1C(=O)C2C=CC1C1CCC2N(C)C1=O (stereo unspecified) | > 100 µM (inactive) | > 100 µM (inactive) | > 100 µM (inactive) | > 100 µM (inactive) | > 100 µM (inactive) | > 100 µM (inactive) | > 100 µM (inactive) |  | > 100 µM (inactive) | > 100 µM (inactive) | > 100 µM (inactive) | > 100 µM (inactive) | > 100 µM (inactive) | > 100 | > 100 µM (inactive) | > 100 µM (inactive) | > 100 µM (inactive) |
| O=c1c2ccccc2[nH]c2c(O)ccc(O)c12 | 16.6 µM (inactive) | 2.64 µM (inactive) | 17.8 µM (inactive) | 5.58 µM (inactive) | 15.1 µM (inactive) | 36.2 µM (inactive) | 29.4 µM (inactive) | > 100 µM (inactive) | 18.8 µM (inactive) | 18.1 µM (inactive) | 17.5 µM (inactive) | 37.7 µM (inactive) | 26.3 µM (inactive) | 17.9 | 27.4 µM (inactive) | 25.6 µM (inactive) |  |
| O=C(NN1C(=O)C(Cl)C1c1c(O)ccc2ccccc12)c1ccccc1O (stereo unspecified) | > 100 µM (inactive) | > 100 µM (inactive) | > 100 µM (inactive) | > 100 µM (inactive) | > 100 µM (inactive) | > 100 µM (inactive) | > 100 µM (inactive) |  | > 100 µM (inactive) | > 100 µM (inactive) | > 100 µM (inactive) | > 100 µM (inactive) | > 100 µM (inactive) | > 100 | > 100 µM (inactive) | > 100 µM (inactive) | > 100 µM (inactive) |
| OCC12C3C4C1C1C2C3C41CO (stereo unspecified) | > 100 µM (inactive) |  | > 100 µM (inactive) | > 100 µM (inactive) | > 100 µM (inactive) | > 100 µM (inactive) |  | > 100 µM (inactive) | > 100 µM (inactive) | > 100 µM (inactive) | > 100 µM (inactive) | > 100 µM (inactive) | > 100 µM (inactive) | > 100 | > 100 µM (inactive) | > 100 µM (inactive) | > 100 µM (inactive) |
| S=C1SCC2CCCN12 (stereo unspecified) |  | > 100 µM (inactive) | > 100 µM (inactive) | > 100 µM (inactive) | > 100 µM (inactive) | > 100 µM (inactive) | > 100 µM (inactive) | > 100 µM (inactive) |  | > 100 µM (inactive) | > 100 µM (inactive) | > 100 µM (inactive) | > 100 µM (inactive) | > 100 |  |  | > 100 µM (inactive) |
| CCCCCCC(=O)C/C(=N/NC(N)=S)C(=O)NC1C2CC3CC(C2)CC1C3 (stereo unspecified) | > 100 µM (inactive) | > 100 µM (inactive) | > 100 µM (inactive) | > 100 µM (inactive) | > 100 µM (inactive) | > 100 µM (inactive) | > 100 µM (inactive) | > 100 µM (inactive) | > 100 µM (inactive) | > 100 µM (inactive) |  | > 100 µM (inactive) | > 100 µM (inactive) |  | > 100 µM (inactive) | > 100 µM (inactive) | > 100 µM (inactive) |
| Cc1cc(=O)n(-c2cc3cccccc-3n2)[nH]1 | 3.05 µM (inactive) | 3.48 µM (inactive) | 9.64 µM (inactive) | 4.13 µM (inactive) | 2.04 µM (inactive) | 12.4 µM (inactive) |  | 4.34 µM (inactive) | 4.67 µM (inactive) | 5.15 µM (inactive) | 2.74 µM (inactive) | 6.35 µM (inactive) | 7.31 µM (inactive) | 5.07 | 4.8 µM (inactive) | 12.1 µM (inactive) | 2.05 µM (inactive) |
| O=C(CCc1cc(-c2ccco2)n(-c2ccc([N+](=O)[O-])cc2[N+](=O)[O-])n1)Nc1ccccc1 |  | 49.3 µM (inactive) |  | 61 µM (inactive) | > 100 µM (inactive) | > 100 µM (inactive) | > 100 µM (inactive) | > 100 µM (inactive) | > 100 µM (inactive) | > 100 µM (inactive) | 45.5 µM (inactive) | > 100 µM (inactive) |  | > 100 | > 100 µM (inactive) | > 100 µM (inactive) | > 100 µM (inactive) |
| Cc1cc(=O)cc2sc3c(C)cccc3nc1-2 | 15.5 µM (inactive) | 18.9 µM (inactive) | 17.3 µM (inactive) | 15.4 µM (inactive) | 37.1 µM (inactive) | 63.5 µM (inactive) | 17.7 µM (inactive) | 95.3 µM (inactive) | 23.1 µM (inactive) | 62.8 µM (inactive) | 23.6 µM (inactive) | 28.6 µM (inactive) | 32.7 µM (inactive) | 48.1 | 37.2 µM (inactive) |  | 17.7 µM (inactive) |
| CN1CCc2c1nc(-c1ccc(Cl)cc1)c1c2N(C)CC1 | 1.51 µM (inactive) | 10.7 µM (inactive) | 5.01 µM (inactive) | 12 µM (inactive) | 3.74 µM (inactive) | 18.3 µM (inactive) | > 100 µM (inactive) | 11.2 µM (inactive) |  | 13.7 µM (inactive) | 9.29 µM (inactive) | 10.7 µM (inactive) | 29.2 µM (inactive) | 7.06 | 14.8 µM (inactive) |  | 10.5 µM (inactive) |
